System: human monocytic cell line U937
Experiment: Human U937 cellular necroptosis assay
Format: cell-based
Details: U-937; U937 cells stimulated with 25 ng/mL human TNFalpha and 25 μM z-VAD-FMK; 22 hr; viability by Cell Titer-Glo 2.0; read-out: hU937 IC50
In short: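 U937 cells (5000/well) driven to necroptosis by 25 ng/mL human TNFalpha plus 25 μM z-VAD-FMK alongside 1:3-diluted compounds, 22 hr at 37° C, 5% CO2. Viability by CellTiter-Glo luminescence; IC50 from four-parameter logistic fit.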

SMILES	IC50 [nM]
Cc1ncc(-c2nc(C(=O)N[C@H]3COc4cc(Cl)cnc4N(C)C3=O)ncc2Cl)cn1 [Example 110, (S)-5-chloro-N-(8-chloro-5-methyl-4-oxo-2,3,4,5-tetrahydropyrido[3,2-b]-[1,4]oxazepin-3-yl)-2′-methyl-[4,5′-bipyrimidine]-2-carboxamide]	3560
CN1C(=O)[C@@H](NC(=O)c2ncc(Cl)c(-c3cncnc3)n2)COc2cc(Cl)cnc21 [Example 111, (S)-5-chloro-N-(8-chloro-5-methyl-4-oxo-2,3,4,5-tetrahydropyrido[3,2-b]-[1,4]oxazepin-3-yl)-[4,5′-bipyrimidine]-2-carboxamide]	485
CN1C(=O)[C@@H](NC(=O)c2ncc(Cl)c(-c3cnccn3)n2)COc2cc(Cl)cnc21 [Example 112, (S)-5-chloro-N-(8-chloro-5-methyl-4-oxo-2,3,4,5-tetrahydropyrido[3,2-b]-[1,4]oxazepin-3-yl)-4-(pyrazin-2-yl)pyrimidine-2-carboxamide]	92.9
CN1C(=O)[C@@H](NC(=O)c2ncc(Cl)c(-c3cccc4[nH]cnc34)n2)COc2cc(Cl)cnc21 [Example 113, (S)-4-(1H-benzo[d]imidazol-4-yl)-5-chloro-N-(8-chloro-5-methyl-4-oxo-2,3,4,5-tetrahydropyrido[3,2-b]-[1,4]oxazepin-3-yl)pyrimidine-2-carboxamide]	7760
CN1C(=O)[C@@H](NC(=O)c2ncc(Cl)c(-c3cccc4[nH]ncc34)n2)COc2cc(Cl)cnc21 [Example 114, (S)-5-chloro-N-(8-chloro-5-methyl-4-oxo-2,3,4,5-tetrahydropyrido[3,2-b]-[1,4]oxazepin-3-yl)-4-(1H-indazol-4-yl)pyrimidine-2-carboxamide]	63.1
CN1C(=O)[C@@H](NC(=O)c2ncc(Cl)c(-c3ccn4cnnc4c3)n2)COc2cc(Cl)cnc21 [Example 115, (S)-4-([1,2,4]triazolo[4,3-a]pyridin-7-yl)-5-chloro-N-(8-chloro-5-methyl-4-oxo-2,3,4,5-tetrahydropyrido[3,2-b]-[1,4]oxazepin-3-yl)pyrimidine-2-carboxamide]	330
Cc1cnc(C(=O)N[C@H]2COc3cc(Cl)cnc3N(C)C2=O)nc1-c1ccccc1F [Example 116, (S)-N-(8-chloro-5-methyl-4-oxo-2,3,4,5-tetrahydro-pyrido[3,2-b][1,4]oxazepin-3-yl)-4-(2-fluorophenyl)-5-methylpyrimidine-2-carboxamide]	8.42
Cc1cnc(C(=O)N[C@H]2COc3cc(Cl)cnc3N(C)C2=O)nc1-c1cccc(F)c1F [Example 117, (S)-N-(8-chloro-5-methyl-4-oxo-2,3,4,5-tetrahydro-pyrido[3,2-b][1,4]oxazepin-3-yl)-4-(2,3-difluorophenyl)-5-methylpyrimidine-2-carboxamide]	14.1
Cc1cnc(C(=O)N[C@H]2COc3cc(Cl)cnc3N(C)C2=O)nc1-c1ccncc1F [Example 120, (S)-N-(8-chloro-5-methyl-4-oxo-2,3,4,5-tetrahydro-pyrido[3,2-b][1,4]oxazepin-3-yl)-4-(3-fluoropyridin-4-yl)-5-methylpyrimidine-2-carboxamide]	134
Cc1cnc(C(=O)N[C@H]2COc3cc(Cl)cnc3N(C)C2=O)nc1-c1ccc(F)cn1 [Example 121, (S)-N-(8-chloro-5-methyl-4-oxo-2,3,4,5-tetrahydro-pyrido[3,2-b][1,4]oxazepin-3-yl)-4-(5-fluoropyridin-2-yl)-5-methylpyrimidine-2-carboxamide]	30.2
Cc1cnc(C(=O)N[C@H]2COc3cc(Cl)cnc3N(C)C2=O)nc1-c1cncnc1 [Example 122, (S)-N-(8-chloro-5-methyl-4-oxo-2,3,4,5-tetrahydro-pyrido[3,2-b][1,4]oxazepin-3-yl)-5-methyl-[4,5′-bipyrimidine]-2-carboxamide]	144
Cc1cnc(C(=O)N[C@H]2COc3cc(Cl)cnc3N(C)C2=O)nc1-c1cnccn1 [Example 123, (S)-N-(8-chloro-5-methyl-4-oxo-2,3,4,5-tetrahydro-pyrido[3,2-b][1,4]oxazepin-3-yl)-5-methyl-4-(pyrazin-2-yl)-pyrimidine-2-carboxamide]	48.5
Cc1cnc(C(=O)N[C@H]2COc3cc(Cl)cnc3N(C)C2=O)nc1-c1ccc2nccn2c1 [Example 124, (S)-N-(8-chloro-5-methyl-4-oxo-2,3,4,5-tetrahydropyrido[3,2-b][1,4]oxazepin-3-yl)-4-(imidazo[1,2-a]pyridin-6-yl)-5-methylpyrimidine-2-carboxamide]	165
COc1cnc(C(=O)N[C@H]2COc3cc(Cl)cnc3N(C)C2=O)nc1-c1ccccc1 [Example 125, (S)-N-(8-chloro-5-methyl-4-oxo-2,3,4,5-tetrahydro-pyrido[3,2-b][1,4]oxazepin-3-yl)-5-methoxy-4-phenylpyrimidine-2-carboxamide]	128
CN1C(=O)[C@@H](NC(=O)c2ncc(CO)c(-c3ccccc3)n2)COc2cc(Cl)cnc21 [Example 126, (S)-N-(8-chloro-5-methyl-4-oxo-2,3,4,5-tetrahydro-pyrido[3,2-b][1,4]oxazepin-3-yl)-5-(hydroxymethyl)-4-phenylpyrimidine-2-carboxamide]	30
CN1C(=O)[C@@H](NC(=O)c2ncc(S(C)(=N)=O)c(-c3ccccc3)n2)COc2cc(Cl)cnc21 (stereo partly drawn) [Example 127, N-((S)-8-chloro-5-methyl-4-oxo-2,3,4,5-tetrahydro-pyrido[3,2-b][1,4]oxazepin-3-yl)-5-(S-methylsulfonimidoyl)-4-phenylpyrimidine-2-carboxamide]	3950
CN1C(=O)[C@@H](NC(=O)c2ncc(Cl)c(-c3cccc(F)c3)n2)COc2cc(C#N)ccc21 [Example 128, (S)-5-chloro-N-(8-cyano-5-methyl-4-oxo-2,3,4,5-tetrahydrobenzo[b]-[1,4]oxazepin-3-yl)-4-(3-fluorophenyl)pyrimidine-2-carboxamide]	16.2
CN1C(=O)[C@@H](NC(=O)c2ncc(Cl)c(-c3ccc(F)cc3)n2)COc2cc(C#N)ccc21 [Example 129, (S)-5-chloro-N-(8-cyano-5-methyl-4-oxo-2,3,4,5-tetrahydrobenzo[b]-[1,4]oxazepin-3-yl)-4-(4-fluorophenyl)pyrimidine-2-carboxamide]	13.8
CN1C(=O)[C@@H](NC(=O)c2ncc(Cl)c(-c3cc(F)ccc3F)n2)COc2cc(C#N)ccc21 [Example 130, (S)-5-chloro-N-(8-cyano-5-methyl-4-oxo-2,3,4,5-tetrahydrobenzo[b]-[1,4]oxazepin-3-yl)-4-(2,5-difluorophenyl)pyrimidine-2-carboxamide]	16.1
CN1C(=O)[C@@H](NC(=O)c2ncc(Cl)c(-c3ccc(Cl)cc3)n2)COc2cc(C#N)ccc21 [Example 131, (S)-5-chloro-4-(4-chlorophenyl)-N-(8-cyano-5-methyl-4-oxo-2,3,4,5-tetrahydrobenzo[b]-[1,4]oxazepin-3-yl)pyrimidine-2-carboxamide]	22.1
Cc1ccc(-c2nc(C(=O)N[C@H]3COc4cc(C#N)ccc4N(C)C3=O)ncc2Cl)cc1F [Example 132, (S)-5-chloro-N-(8-cyano-5-methyl-4-oxo-2,3,4,5-tetrahydrobenzo[b]-[1,4]oxazepin-3-yl)-4-(3-fluoro-4-methylphenyl)pyrimidine-2-carboxamide]	20.2
Cc1cnc(C(=O)N[C@H]2COc3cc(C#N)ccc3N(C)C2=O)nc1C12CCC(CC1)CC2 [Example 133, (S)-4-(bicyclo[2.2.2]octan-1-yl)-N-(8-cyano-5-methyl-4-oxo-2,3,4,5-tetrahydrobenzo[b]-[1,4]oxazepin-3-yl)-5-methylpyrimidine-2-carboxamide]	160
Cc1cnc(C(=O)N[C@H]2COc3cc(C#N)ccc3N(C)C2=O)nc1C1CCOCC1 [Example 134, (S)-N-(8-cyano-5-methyl-4-oxo-2,3,4,5-tetrahydrobenzo[b]-[1,4]oxazepin-3-yl)-5-methyl-4-(tetrahydro-2H-pyran-4-yl)-pyrimidine-2-carboxamide]	246
Cc1cnc(C(=O)N[C@H]2COc3cc(C#N)ccc3N(C)C2=O)nc1-c1cccc(F)c1 [Example 135, (S)-N-(8-cyano-5-methyl-4-oxo-2,3,4,5-tetrahydrobenzo[b]-[1,4]oxazepin-3-yl)-4-(3-fluorophenyl)-5-methylpyrimidine-2-carboxamide]	17.6
Cc1cnc(C(=O)N[C@H]2COc3cc(C#N)ccc3N(C)C2=O)nc1-c1ccc(F)cc1 [Example 136, (S)-N-(8-cyano-5-methyl-4-oxo-2,3,4,5-tetrahydrobenzo[b]-[1,4]oxazepin-3-yl)-4-(4-fluorophenyl)-5-methylpyrimidine-2-carboxamide]	14.3
Cc1ccc(-c2nc(C(=O)N[C@H]3COc4cc(C#N)ccc4N(C)C3=O)ncc2C)cc1 [Example 137, (S)-N-(8-cyano-5-methyl-4-oxo-2,3,4,5-tetrahydrobenzo[b]-[1,4]oxazepin-3-yl)-5-methyl-4-(p-tolyl)pyrimidine-2-carboxamide]	18.8
CN1C(=O)[C@@H](NC(=O)c2ncc(Cl)c(-c3ccc(F)cc3F)n2)COc2cc(C#N)ccc21 [Example 138, (S)-5-chloro-N-(8-cyano-5-methyl-4-oxo-2,3,4,5-tetrahydrobenzo[b]-[1,4]oxazepin-3-yl)-4-(2,4-difluorophenyl)pyrimidine-2-carboxamide]	16.4
Cc1ccc(-c2nc(C(=O)N[C@H]3COc4cc(C#N)ccc4N(C)C3=O)ncc2Cl)c(F)c1 [Example 139, (S)-5-chloro-N-(8-cyano-5-methyl-4-oxo-2,3,4,5-tetrahydrobenzo[b]-[1,4]oxazepin-3-yl)-4-(2-fluoro-4-methylphenyl)pyrimidine-2-carboxamide]	32.6
CN1C(=O)[C@@H](NC(=O)c2ncc(Cl)c(-c3ccc(F)cc3F)n2)COc2ccc(NCC(F)(F)CCl)cc21 [Example 140, (S)-5-chloro-N-(7-((3-chloro-2,2-difluoropropyl)amino)-5-methyl-4-oxo-2,3,4,5-tetrahydrobenzo[b]-[1,4]oxazepin-3-yl)-4-(2,4-difluorophenyl)pyrimidine-2-carboxamide]	35.4

From patent publication US12565490B2, “Inhibitors of Receptor Interacting Protein Kinase I for the treatment of disease” (Board of Regents, The University of Texas System, priority 2020, dated 2026)
